Test results as given in patent US9056865B2, “Pyridine-2-derivatives as smoothened receptor modulators” (Pfizer Inc., priority 2010, dated 2015).

How the values were obtained:
human Smo = human Smo (Homo sapiens (Human), UniProt Q99835); assay: Smo radioligand competition binding assay; conditions: for inhibition at 0.05 µM: 0.05 μM test compound, read-out: Smo % inh. @ 0.05 μM
Method in brief: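 Membranes from HEK293 cells expressing surface human Smo 181-781 (40 μg protein/well) incubated 2 h at room temperature with test compound and tritiated Smo antagonist (3 nM), pH 7.5 Tris buffer; filtration and scintillation counting. Non-specific binding defined with 30 μM cold antagonist; IC50 from four-parameter sigmoidal fit.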

Gli-Luc/MEF cells = assay: Gli-Luc/MEF assay; format: cell-based, mouse; conditions: Mus musculus, MEF; Shh-stimulated luciferase, 48 hours
Method in brief: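 Shh-stimulated luciferase readout (Bright-Glo) after 48 h, 37 °C, 5% CO2, used to derive IC50 of inhibition. Gli-Luc transgenic mouse MEFs received test compounds at final […] in 3-fold dilutions, with recombinant mouse Shh added immediately at final 2 μg/mL.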

Sequence of human Smo (Q99835 181-787): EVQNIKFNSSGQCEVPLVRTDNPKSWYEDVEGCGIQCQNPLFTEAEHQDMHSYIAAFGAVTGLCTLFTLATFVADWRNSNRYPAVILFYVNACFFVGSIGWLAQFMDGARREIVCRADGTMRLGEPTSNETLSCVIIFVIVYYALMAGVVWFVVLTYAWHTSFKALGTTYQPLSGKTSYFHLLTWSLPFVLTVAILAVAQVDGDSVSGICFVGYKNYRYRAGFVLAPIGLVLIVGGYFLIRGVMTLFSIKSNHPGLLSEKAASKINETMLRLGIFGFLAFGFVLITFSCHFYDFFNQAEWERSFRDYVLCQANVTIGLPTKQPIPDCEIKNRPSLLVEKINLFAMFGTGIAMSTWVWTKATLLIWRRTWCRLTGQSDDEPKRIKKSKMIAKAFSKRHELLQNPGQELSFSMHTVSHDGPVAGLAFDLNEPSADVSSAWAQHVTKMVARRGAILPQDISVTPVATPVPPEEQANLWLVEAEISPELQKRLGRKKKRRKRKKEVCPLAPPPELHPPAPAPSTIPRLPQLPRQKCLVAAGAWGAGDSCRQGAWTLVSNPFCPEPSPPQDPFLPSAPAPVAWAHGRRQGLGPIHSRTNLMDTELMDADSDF

SMILES: Cc1cccnc1-c1cc(N2CC(C(=O)N(C)[C@@H]3CS(=O)(=O)C[C@H]3O)C2)ncc1Cl [Example A-69, 1-(5′-chloro-3-methyl-2,4′-bipyridin-2′-yl)-N-[(3S,4S)-4-hydroxy-1,1-dioxidotetrahydro-3-thienyl]-N-methylazetidine-3-carboxamide]
- IC50 (human Smo): 189 nM
- inhibition at 0.05 µM (human Smo): 74.4%
- IC50 (Gli-Luc/MEF cells): 148 nM

SMILES: Cc1ccc(-c2nc(N3CCC(NS(C)(=O)=O)CC3)ccc2Cl)nc1 [Example A-117, N-[1-(3-chloro-5′-methyl-2,2′-bipyridin-6-yl)piperidin-4-yl]methanesulfonamide]
- IC50 (human Smo): 17 nM
- inhibition at 0.05 µM (human Smo): 96%
- IC50 (Gli-Luc/MEF cells): 11 nM

SMILES: Cc1cccnc1-c1cc(N2CCC(OCC(=O)NC(C)(C)C)CC2)ncc1Cl [Example A-42, N-tert-butyl-2-{[1-(5′-chloro-3-methyl-2,4′-bipyridin-2′-yl)piperidin-4-yl]oxy}acetamide]
- IC50 (human Smo): 125 nM
- inhibition at 0.05 µM (human Smo): 80.5%
- IC50 (Gli-Luc/MEF cells): 37.1 nM

SMILES: Cc1cccnc1-c1cc(N2CCC(C(=O)Nc3cnn(C)n3)CC2)ncc1Cl [Example A-88, 1-(5′-chloro-3-methyl-2,4′-bipyridin-2′-yl)-N-(2-methyl-2H-1,2,3-triazol-4-yl)piperidine-4-carboxamide]
- IC50 (human Smo): 49 nM
- inhibition at 0.05 µM (human Smo): 85.6%
- IC50 (Gli-Luc/MEF cells): 53 nM

SMILES: Cc1cccnc1-c1cc(N2CCC(C(=O)NC3(CO)CCCC3)CC2)ncc1Cl [Example A-76, 1-(5′-chloro-3-methyl-2,4′-bipyridin-2′-yl)-N-[1-(hydroxymethyl)cyclopentyl]piperidine-4-carboxamide]
- IC50 (human Smo): 25.8 nM
- inhibition at 0.05 µM (human Smo): 91.6%
- IC50 (Gli-Luc/MEF cells): 18.3 nM

SMILES: CCCNC(=O)COC1CCN(c2cc(-c3ncccc3C)c(Cl)cn2)CC1 [Example A-40, 2-{[1-(5′-chloro-3-methyl-2,4′-bipyridin-2′-yl)piperidin-4-yl]oxy}-N-propylacetamide]
- IC50 (human Smo): 254 nM
- inhibition at 0.05 µM (human Smo): 70.2%
- IC50 (Gli-Luc/MEF cells): 114 nM

SMILES: Cc1cccnc1-c1cc(N2CCC(C(=O)NC3CCOCC3)CC2)ncc1Cl [Example A-77, 1-(5′-chloro-3-methyl-2,4′-bipyridin-2′-yl)-N-(tetrahydro-2H-pyran-4-yl)piperidine-4-carboxamide]
- IC50 (human Smo): 52.5 nM
- inhibition at 0.05 µM (human Smo): 87.7%
- IC50 (Gli-Luc/MEF cells): 48.4 nM

SMILES: Cc1cccnc1-c1cc(N2CCC(C(=O)N[C@@H]3c4ccccc4C[C@@H]3O)CC2)ncc1Cl [Example A-58, 1-(5′-chloro-3-methyl-2,4′-bipyridin-2′-yl)-N-[(1R,2S)-2-hydroxy-2,3-dihydro-1H-inden-1-yl]piperidine-4-carboxamide]
- IC50 (human Smo): 184 nM
- inhibition at 0.05 µM (human Smo): 70.3%
- IC50 (Gli-Luc/MEF cells): 38.8 nM

SMILES: Cc1ccc(-c2nc(N3CCC(NS(C)(=O)=O)CC3)ccc2Br)nc1 [Example A-120, N-[1-(3-bromo-5′-methyl-2,2′-bipyridin-6-yl)piperidin-4-yl]methanesulfonamide]
- IC50 (human Smo): 40 nM
- inhibition at 0.05 µM (human Smo): 93%
- IC50 (Gli-Luc/MEF cells): 29 nM

SMILES: Cc1cccnc1-c1nc(N2CCC(CS(C)(=O)=O)CC2)ncc1Cl [Example A-97, 5-chloro-4-(3-methylpyridin-2-yl)-2-{4-[(methylsulfonyl)methyl]piperidin-1-yl}pyrimidine]
- IC50 (human Smo): 30 nM
- inhibition at 0.05 µM (human Smo): 95.4%
- IC50 (Gli-Luc/MEF cells): 13.3 nM

SMILES: Cc1cccnc1-c1cc(N2CCC(C(=O)N[C@@H]3CS(=O)(=O)C[C@H]3O)CC2)ncc1Cl [Example A-68, 1-(5′-chloro-3-methyl-2,4′-bipyridin-2′-yl)-N-[(3S,4S)-4-hydroxy-1,1-dioxidotetrahydro-3-thienyl]piperidine-4-carboxamide]
- IC50 (human Smo): 120 nM
- inhibition at 0.05 µM (human Smo): 88.8%
- IC50 (Gli-Luc/MEF cells): 54.4 nM

SMILES: COCCOCC1CCN(c2cc(-c3ncccc3C)c(Cl)cn2)CC1 [Example A-37, 5′-chloro-2′-{4-[(2-methoxyethoxy)methyl]piperidin-1-yl}-3-methyl-2,4′-bipyridine]
- IC50 (human Smo): 209 nM
- inhibition at 0.05 µM (human Smo): 71.6%
- IC50 (Gli-Luc/MEF cells): 98 nM

SMILES: Cc1cccnc1-c1cc(N2CCC(C(=O)Nc3cccc(CO)n3)CC2)ncc1Cl [Example A-75, 1-(5′-chloro-3-methyl-2,4′-bipyridin-2′-yl)-N-[6-(hydroxymethyl)pyridin-2-yl]piperidine-4-carboxamide]
- IC50 (human Smo): 93.3 nM
- inhibition at 0.05 µM (human Smo): 88.6%
- IC50 (Gli-Luc/MEF cells): 47.9 nM

SMILES: CS(=O)(=O)NC1CCN(c2cc(-c3ncccc3Cl)c(Cl)cn2)CC1 [Example A-10, N-[1-(3,5′-dichloro-2,4′-bipyridin-2′-yl)piperidin-4-yl]methanesulfonamide]
- IC50 (human Smo): 32.1 nM
- inhibition at 0.05 µM (human Smo): 75%
- IC50 (Gli-Luc/MEF cells): 209 nM

SMILES: Cc1cnc(-c2ccnc(N3CCN(C(=O)CCS(C)(=O)=O)CC3)c2)c(C)c1 [Example A-141, 1-[4-(3,5-dimethyl-2,4′-bipyridin-2′-yl)piperazin-1-yl]-3-(methylsulfonyl)propan-1-one]
- IC50 (human Smo): 11.6 nM
- inhibition at 0.05 µM (human Smo): 96.3%
- IC50 (Gli-Luc/MEF cells): 8.42 nM

SMILES: CCOC(=O)N1CCN(c2cc(-c3ncccc3C)c(Cl)cn2)CC1 [Example A-39, ethyl 4-(5′-chloro-3-methyl-2,4′-bipyridin-2′-yl)piperazine-1-carboxylate]
- IC50 (human Smo): 109 nM
- inhibition at 0.05 µM (human Smo): 80.7%
- IC50 (Gli-Luc/MEF cells): 48.5 nM

SMILES: Cc1cc(F)cnc1-c1cc(N2CCN(C(=O)CCS(C)(=O)=O)CC2)ncc1Cl [Example A-151, 1-[4-(5′-chloro-5-fluoro-3-methyl-2,4′-bipyridin-2′-yl)piperazin-1-yl]-3-(methylsulfonyl)propan-1-one]
- inhibition at 0.05 µM (human Smo): 101%
- IC50 (Gli-Luc/MEF cells): 8.76 nM

SMILES: CS(=O)(=O)CC1CCN(c2ncc(Cl)c(-c3ccccn3)n2)CC1 [Example A-92, 5-chloro-2-{4-[(methylsulfonyl)methyl]piperidin-1-yl}-4-pyridin-2-ylpyrimidine]
- IC50 (human Smo): 132 nM
- inhibition at 0.05 µM (human Smo): 79.8%
- IC50 (Gli-Luc/MEF cells): 59 nM

SMILES: Cc1cnc(-c2cc(N3CCN(C(=O)CO)CC3)ncc2Cl)c(C)c1 [Example A-102, 2-[4-(5′-chloro-3,5-dimethyl-2,4′-bipyridin-2′-yl)piperazin-1-yl]-2-oxoethanol]
- IC50 (human Smo): 57.9 nM
- inhibition at 0.05 µM (human Smo): 84%
- IC50 (Gli-Luc/MEF cells): 60.1 nM

SMILES: Cc1cccnc1-c1cc(N2CCC3(CC2)CN(C)C(=O)O3)ncc1Cl [Example A-20, 8-(5′-chloro-3-methyl-2,4′-bipyridin-2′-yl)-3-methyl-1-oxa-3,8-diazaspiro[4.5]decan-2-one]
- IC50 (human Smo): 407 nM
- inhibition at 0.05 µM (human Smo): 64.6%
- IC50 (Gli-Luc/MEF cells): 109 nM

SMILES: CC(=O)NC1CCN(c2cc(-c3ncccc3C)c(Cl)cn2)CC1 [Example A-35, N-[1-(5′-chloro-3-methyl-2,4′-bipyridin-2′-yl)piperidin-4-yl]acetamide]
- IC50 (human Smo): 199 nM
- inhibition at 0.05 µM (human Smo): 70.6%
- IC50 (Gli-Luc/MEF cells): 67.7 nM

SMILES: CS(=O)(=O)CC1CCN(c2ccc(Cl)c(-c3ccccn3)n2)CC1 [Example A-53, 3-chloro-6-{4-[(methylsulfonyl)methyl]piperidin-1-yl}-2,2′-bipyridine]
- IC50 (human Smo): 38.2 nM
- inhibition at 0.05 µM (human Smo): 93.3%
- IC50 (Gli-Luc/MEF cells): 27.3 nM

SMILES: Cc1cccnc1-c1cc(N2CCC(C(=O)NCC3(O)CCC3)CC2)ncc1Cl [Example A-64, 1-(5′-chloro-3-methyl-2,4′-bipyridin-2′-yl)-N-[(1-hydroxycyclobutyl)methyl]piperidine-4-carboxamide]
- IC50 (human Smo): 157 nM
- inhibition at 0.05 µM (human Smo): 78.1%
- IC50 (Gli-Luc/MEF cells): 109 nM

SMILES: COCCS(=O)(=O)N1CCN(c2cc(-c3ncc(C)cc3C)c(Cl)cn2)CC1 [Example A-110, 5′-chloro-2′-{4-[(2-methoxyethyl)sulfonyl]piperazin-1-yl}-3,5-dimethyl-2,4′-bipyridine]
- IC50 (human Smo): 29.2 nM
- inhibition at 0.05 µM (human Smo): 94.4%
- IC50 (Gli-Luc/MEF cells): 12.4 nM

SMILES: Cc1cccnc1-c1cc(N2CCN(C(=O)C(C)(C)C)CC2)ncc1Cl [Example A-43, 5′-chloro-2′-[4-(2,2-dimethylpropanoyl)piperazin-1-yl]-3-methyl-2,4′-bipyridine]
- IC50 (human Smo): 25.5 nM
- inhibition at 0.05 µM (human Smo): 95%
- IC50 (Gli-Luc/MEF cells): 19.1 nM

SMILES: Cc1cccnc1-c1cc(N2CCC(C(=O)N3CCCC(O)C3CO)CC2)ncc1Cl (centres unmarked) [Example A-86, 1-{[1-(5′-chloro-3-methyl-2,4′-bipyridin-2′-yl)piperidin-4-yl]carbonyl}-2-(hydroxymethyl)piperidin-3-ol]
- IC50 (human Smo): 112 nM
- inhibition at 0.05 µM (human Smo): 81.5%
- IC50 (Gli-Luc/MEF cells): 116 nM

SMILES: Cc1cccnc1-c1cc(N2CCC(C(=O)N3CCCC[C@H]3CO)CC2)ncc1Cl [Example A-85, [(2S)-1-{[1-(5′-chloro-3-methyl-2,4′-bipyridin-2′-yl)piperidin-4-yl]carbonyl}piperidin-2-yl]methanol]
- IC50 (human Smo): 42.4 nM
- inhibition at 0.05 µM (human Smo): 92.7%
- IC50 (Gli-Luc/MEF cells): 116 nM

SMILES: Cc1cccnc1-c1cc(N2CCC(C(=O)NC3CCCCC3O)CC2)ncc1Cl (centres unmarked) [Example A-72, 1-(5′-chloro-3-methyl-2,4′-bipyridin-2′-yl)-N-(2-hydroxycyclohexyl)piperidine-4-carboxamide]
- IC50 (human Smo): 28.3 nM
- inhibition at 0.05 µM (human Smo): 96.3%
- IC50 (Gli-Luc/MEF cells): 22.5 nM

SMILES: CC(C)(O)CC(=O)N1CCN(c2ccc(Cl)c(-c3ccccn3)n2)CC1 [Example A-90, 4-[4-(3-chloro-2,2′-bipyridin-6-yl)piperazin-1-yl]-2-methyl-4-oxobutan-2-ol]
- IC50 (human Smo): 111 nM
- inhibition at 0.05 µM (human Smo): 82.5%
- IC50 (Gli-Luc/MEF cells): 66.9 nM

SMILES: Cc1cccnc1-c1cc(N2CCC(C(=O)NCC3CCCCO3)CC2)ncc1Cl (centres unmarked) [Example A-83, 1-(5′-chloro-3-methyl-2,4′-bipyridin-2′-yl)-N-(tetrahydro-2H-pyran-2-ylmethyl)piperidine-4-carboxamide]
- IC50 (human Smo): 138 nM
- inhibition at 0.05 µM (human Smo): 78.9%
- IC50 (Gli-Luc/MEF cells): 48.5 nM
